Measurements as given in US12686666B2, “Triazine compound salt, crystal form thereof, and production method therefor” (TANABE PHARMA CORPORATION, priority 2020, dated 2026).

What was measured:
[1] = Pharmacokinetics in dogs treated with a promotor (pentagastrin) or an inhibitor (omeprazole) of gastric acid secretion; assay type: in vivo, dogs (male beagle); settings: dog; for Cmax / AUC(0-inf) / AUC(0-t) / Tmax / half-life: male, beagle, plasma, po, 10 mg, fasted, mean; for Cmax: oral 10 mg/capsule (free form equivalent); for AUC(0-inf) / AUC(0-t) / Tmax / half-life: oral 10 mg/capsule
Protocol: The pharmacokinetics of hydrobromide of the Triazine compound A and the Triazine compound A under gastric acid secretion and gastric pH adjustment was evaluated by using dogs treated with a promotor of gastric acid secretion or an inhibitor of gastric acid secretion according to a crossover method of 2 groups with 4 phases.
Pentagastrin was used in the treatment of a promotor of gastric acid secretion. Pentagastrin (2.8 mg) was dissolved into dimethylsulfoxide (7.0 mL) and water for injection (7.0 mL) to prepare an administration solution, and administered into a muscle in the thigh at a dose of […]. Pentagastrin was administered 0.5 hour before and 0.5 hour after the administration of each test material (hydrobromide of the Triazine compound A (Compound 1 prepared in Example 1) or the Triazine compound A (Compound 10 prepared in Example 1)). Omeprazole was used in the treatment of an inhibitor of gastric acid secretion. Omeprazole (90 mg) was dissolved into a 1:1 mixed solution (22.5 mL) of a 0.1% aqueous solution of sodium hydrogen carbonate (w/v) and polyethyleneglycol 400 to prepare an administration solution, and administered into a saphenous vein of the hind limb at a dose of 1 mg/0.25 mL/kg. Omeprazole was administered 1 hour before the administration of each test material.
After 25 mL of water for injection was administered to each dog by using a syringe having an oral catheter, the hydrobromide of the Triazine compound A or the Triazine compound A was forcedly orally administered to each dog at a dose of 10 mg/capsule (in case of hydrobromide of the Triazine compound A, free form equivalent (i.e., 10 mg in terms of the Triazine compound A)), and additional 25 mL of water for injection was administered to each dog through the syringe having an oral catheter. Each test material was administered under fasting state, and each dog was fed 6 hours after the administration. Each dog was deprived of water from 1 hour before the administration of each test material to 2 hours after the administration.
Tests were carried out by using 6 heads of 4 year-old male beagle and dividing them into two groups, each of which comprises 3 heads. The dogs in Group 1 were subjected to the administration in the order of (Phase 1) omeprazole administration, then the Triazine compound A administration, (Phase 2) omeprazole administration, then the hydrobromide of the Triazine compound A administration, (Phase 3) pentagastrin administration, then the Triazine compound A administration, and (Phase 4) pentagastrin administration, then the hydrobromide of the Triazine compound A administration, and the dogs in Group 2 were subjected to the administration in the order of (Phase 1) omeprazole administration, then the hydrobromide of the Triazine compound A administration, (Phase 2) omeprazole administration, then the Triazine compound A administration, (Phase 3) pentagastrin administration, then the hydrobromide of the Triazine compound A administration, and (Phase 4) pentagastrin administration, then the Triazine compound A administration, and washout period between each phase was 6 or 7 days. After 15 minutes, 30 minutes, 1, 2, 4, 6, 8, and 24 hour(s) from the administration of the hydrobromide of the Triazine compound A or the Triazine compound A, 0.6 mL of whole blood sample was collected under awakening of each dog from a cephalic vein by using a heparin sodium injection. The whole blood sample was processed into a plasma, and the drug concentration of the Triazine compound A was analyzed by using liquid chromatography-tandem mass spectrometry (LC-MS/MS). […]

[2] = Thermal stability evaluation (TG/DTA weight change); assay type: physicochemical; settings: for Thermal stability TG: weight change: 25-274° C.
Protocol: (§1) Thermal stability was measured and evaluated by using a thermogravimetry/differential thermal analyzer TG/DTA7200 (SII NanoTechnology Inc.) under the following conditions. • Rate of temperature increase: 10° C./min • Range of temperature increase: 25 to 300° C. • Atmosphere: nitrogen 200 mL/min <Hygroscopicity or Deliquescency Evaluation>
as §1, with “Inc.) under the following conditions • Rate of temperature increase: 10° C./min • Range of temperature increase: 30 to 300° C. • Atmosphere: nitrogen 200 mL/min • or • using a TGA/DSC1 thermogravimetric analyzer (manufactured by Mettler Toledo, STARe system)” for “Inc.)”, “nitrogen 50” for “nitrogen 200”

[3] = Hygroscopicity or deliquescency evaluation (moisture adsorption, DVS); assay type: physicochemical
Protocol: Hygroscopicity or deliquescency was evaluated as follows by using a moisture adsorption measurement device DVS-1 or DVS-intrinsic (Surface Measurement Systems Limited). Each sample (about 5 mg) was placed into an aluminum plate of which the tare weight had been corrected in advance, and the plate was hung on the precision balance of said device to precisely measure the weight at the start of measurement. The humidity was changed in a stepwise manner in a chamber at 25° C., the weight change was recorded with time, and the equilibrium weight was calculated at each humidity. On the basis of the weight at a dried condition (0% RH), the weight change rate and hydration number at each humidity were calculated.
Hygroscopicity or deliquescency was evaluated as follows by using a moisture adsorption measurement device DVS-1 or DVS-intrinsic (Surface Measurement Systems Limited). Each sample was placed into a cell of which the tare weight had been corrected in advance, and the cell was hung on the precision balance of said device to precisely measure the weight at the start of measurement. The humidity was changed in a stepwise manner, the weight change was recorded with time, and the equilibrium weight was calculated at each humidity. On the basis of the weight of anhydride converted from the amount of water at a dried condition (0% RH) or at the start of measurement observed by an alternative method, the weight change rate at each humidity was calculated.

[4] = Chemical stability evaluation (storage 1 week, liquid chromatography peak area %); assay type: physicochemical; settings: did not show a significant increase of related substances
Protocol: Each about 1 mg of a sample stored at 60° C. (sealed) or 60° C./75% RH (open) for 1 week and an unstored sample (at the start of test) was dissolved into a mixed solution of acetonitrile/water (1:1) (5 mL) to obtain each sample solution. A test was carried out by liquid chromatographic method under the following conditions to measure each peak area (%).
Each peak area (%) was measured by using Waters ACQUITY UPLC under the following conditions. • Detector: Photodiode array (measurement wavelength: 239 nm) • Column: Waters ACQUITY BEH C18 (2.1 mm×100 mm, 1.7 μm) • Column temperature: constant temperature about 40° C. • Mobile phase: Solution A; water/TFA (2000:1), Solution B; Acetonitrile/TFA (2000:1) • Concentration gradient control: B % 2→100% (15 minutes) • Flow rate: 0.5 mL/min • Injection volume: 2 μL
Each sample was stored at 60° C. under a sealed condition and at 60° C. under 75% RH for 1 week, and an increase or decrease of related substance(s) after the storage was calculated by high-performance liquid chromatographic method on the basis of the area percentage of each peak. Also, the condition of each sample after the storage was observed.

human CYP11B2 = target: T1, human CYP11B2 (Homo sapiens, UniProt P19099); assay: Aldosterone synthase (CYP11B2) inhibitory activity measurement; assay type: biochemical; settings: mitochondrial fraction of V79 cells expressing human CYP11B2; deoxycorticosterone substrate; HTRF; read-out: IC50 (aldosterone production inhibition)
T1 construct: expressed in transfected cells; the mitochondrial fraction was used
T1 sequence (P19099 25-503): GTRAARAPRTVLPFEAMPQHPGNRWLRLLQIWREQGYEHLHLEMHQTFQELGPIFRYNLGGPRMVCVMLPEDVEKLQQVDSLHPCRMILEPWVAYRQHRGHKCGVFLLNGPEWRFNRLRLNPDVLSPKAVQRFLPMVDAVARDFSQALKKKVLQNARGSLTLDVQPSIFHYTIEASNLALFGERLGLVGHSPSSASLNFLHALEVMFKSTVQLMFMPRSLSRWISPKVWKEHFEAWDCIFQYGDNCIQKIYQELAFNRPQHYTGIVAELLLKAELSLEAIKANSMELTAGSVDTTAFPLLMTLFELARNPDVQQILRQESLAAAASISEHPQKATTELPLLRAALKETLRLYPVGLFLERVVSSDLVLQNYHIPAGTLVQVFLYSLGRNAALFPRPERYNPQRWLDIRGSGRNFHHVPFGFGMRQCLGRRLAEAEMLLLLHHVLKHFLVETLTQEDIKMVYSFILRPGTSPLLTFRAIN
Protocol: The pcDNA3.1-human CYP11B2 plasmid was transfected into a Chinese hamster lung fibroblast V79 cell line to produce a cell line stably expressing a human CYP11B2 gene.
The cells were cultured and grown in the Dulbecco's modified Eagle's/Ham's medium supplemented with 10% fetal bovine serum and 1% G418 disulfate solution under the environment of 37° C., 95% air, and 5% CO2, and the grown cells were harvested.
Then, the cells were fractionated to obtain mitochondria by reference to a method described in Chabre et al. JCE & M 85 (11) 4060-68, 2000. In particular, the cells suspended in a 5 mmol/L Tris-HCl buffer (pH 7.4) containing 250 mmol/L sucrose were homogenized in a Teflon (registered trademark) Potter Elvehjem homogenizer, and then the suspension was centrifuged (800×g, 15 min). […]
The mitochondrial fraction diluted with a buffer containing 10 mmol/L KH2PO4, 10 mmol/L Tris, 20 mmol/L KCl, 25 mmol/L sucrose, 5 mmol/L MgCl2, and 0.05% bovine serum albumin was dispensed to a 96 well plate. […] The amount of the produced aldosterone in the incubated solution was determined by using HTRF (Homogeneous Time Resolved Fluorescence) method.
IC50 (nmol/L) was calculated by analyzing the aldosterone production inhibition rate (%) of each concentration of the Triazine compound A of the present invention by non-linear regression to a logistic curve.

[5] = Omeprazole, reduced gastric acid secretion
[6] = Pentagastrin, increased gastric acid secretion

Compound | Cmax [1, 5] | Cmax [1, 6] | AUC(0-inf) [1, 5] | AUC(0-t) [1, 5] | Tmax [1, 5] | half-life [1, 5] | AUC(0-inf) [1, 6] | AUC(0-t) [1, 6] | Tmax [1, 6] | half-life [1, 6] | further results
Br.CC(=O)N[C@H]1CC[C@H](NC(=O)CN2CCN(c3nncc(-c4ccc(C)cc4)n3)CC2)CC1 [Hydrobromide Form A crystal, 3-[4-[[trans-4-(acetamino)cyclohexyl]carbamoylmethyl]piperazin-1-yl]-5-(p-tolyl)-1,2,4-triazine hydrobromide] | 256 ng/mL | 263 ng/mL | 2030 ng·h/mL | 1990 ng·h/mL | 1.83 h | 258 min | 2020 ng·h/mL | 1990 ng·h/mL | 1.67 h | 254 min | Change of plasma concentration with the gastric acid conditions ([1]; oral 10 mg free form equivalent, pentagastrin vs omeprazole): not changed; Thermal stability TG: weight change [2]: 0.9%; Thermal stability TG: weight change ([2]; Table 10): 0.98; Thermal stability, conclusion in words ([2]; did not show a significant weight change (Succinate Form A: at 25 to 148° C., melting point)): excellent thermal stability; Hygroscopicity or Deliquescency Weight change at 90% RH ([3]; Table 5, 25° C., relative to weight at 0% RH): 1.0%; Hygroscopicity or Deliquescency Weight change at 90% RH ([3]; Table 10, *1 with hydration stage): 1.0% ^; Hygroscopicity or deliquescency, conclusion in words ([3]; from Table 5): excellent in the reduced hygroscopicity or deliquescency; Chemical stability, conclusion in words [4]: excellent chemical stability
CC(=O)N[C@H]1CC[C@H](NC(=O)CN2CCN(c3nncc(-c4ccc(C)cc4)n3)CC2)CC1 [Triazine compound A, 3-[4-[[trans-4-(acetamino)cyclohexyl]carbamoylmethyl]piperazin-1-yl]-5-(p-tolyl)-1,2,4-triazine] | 102 ng/mL | 222 ng/mL | 1000 ng·h/mL | 943 ng·h/mL | 3.33 h | 336 min | 1910 ng·h/mL | 1690 ng·h/mL | 1.42 h | 256 min | Reduction of AUC under reduced gastric acid conditions as compared to increased gastric acid secretion conditions ([1]; oral 10 mg): about 50%; Reduction of Cmax under reduced gastric acid conditions as compared to increased gastric acid secretion conditions ([1]; oral 10 mg): about 50%; IC50 (human CYP11B2): 9 nM
